Consider 40 compounds from patent publication US7943774B2 (priority 2008, dated 2011).

A short description of the data set: log P (pH2.3). It counts as physicochemical.
Where [1] appears, read: method [b]: LC-MS, acidic range, pH 2.7, 0.1% aqueous formic acid and acetonitrile.
[2] abbreviates: method [c]: LC-MS, neutral range, pH 7.8, 0.001 molar aqueous ammonium bicarbonate and acetonitrile.
Where [3] appears, read: method [b]: LC-MS, acidic range, pH 2.7, 0.1% aqueous formic acid and acetonitrile, HPLC on reversed-phase C 18.
[4] abbreviates: method [c]: LC-MS, neutral range, pH 7.8, 0.001 molar aqueous ammonium bicarbonate solution and acetonitrile, HPLC on reversed-phase C 18.

Like-named read-outs stand apart in the source and are kept apart here.

For `CC(C)c1cc(C(F)(F)F)n(CC(=O)N2CCC(c3nc(C#Cc4cccc5ccccc45)cs3)CC2)n1` [Example I-122], the log p under setting [1] is 4.99^[b]. On to `Cc1cc(C(F)(F)F)nn1CC(=O)N1CCC(c2nc(CCc3ccc(Cl)cc3Cl)cs2)CC1` [Example I-123], for which the log p by setting is: under setting [1], 4.74^[b]; under setting [2], 4.77^[c];. For `O=C(Cc1cc(Br)ccc1Br)N1CCC(c2nc(C#Cc3cccc4ccccc34)cs2)CC1` [Example I-124], the log p was 5.47^[b] under setting [1] and 5.52^[c]; under setting [2]. Take `C#Cc1csc(C2CCN(C(=O)Cc3cc(Cl)ccc3Cl)CC2)n1` [Example I-125]: the log p under setting [1] is 3.08^[b].

With `Cc1ccccc1CCc1csc(C2CCN(C(=O)Cn3nc(C(F)(F)F)cc3C)CC2)n1` [Example I-126], the log p is, setting by setting: under setting [1], 4.08^[b]; under setting [2], 4.16^[c];.

Take `Cc1cc(C(F)(F)F)nn1CC(=O)N1CCC(c2nc(CCc3c(F)cccc3F)cs2)CC1` [Example I-128]: the log p is 3.9^[b] under setting [1] and 3.97^[c], under setting [2].

As for `Cc1cc(C(F)(F)F)nn1CC(=O)N1CCC(c2nc(CCC3CCCCC3)cs2)CC1` [Example I-132], the log p under setting [1] is 5.01^[b]. On the same count and under the same terms, then `Cc1cc(C(F)(F)F)nn1CC(=O)N1CCC(c2nc(CCC3CCCc4ccccc43)cs2)CC1` (stereo not shown) [Example I-133], with 4.95^[b]. Regarding `O=C(Cn1nc(C(F)(F)F)cc1C(F)(F)F)N1CCC(c2nc(CCC3CCCCC3)cs2)CC1` [Example I-140], the log p under setting [3] was 5.76^[b].

As for `O=C(Cn1nc(C(F)F)cc1C(F)F)N1CCC(c2nc(CCC3CCCCC3)cs2)CC1` [Example I-148], the log p under setting [3] is 4.87^[b]. For the compound `O=C(Cn1nc(C(F)F)cc1C(F)F)N1CCC(c2nc(CCC3CCCc4ccccc43)cs2)CC1` (stereo not shown) [Example I-149], the log p under setting [3] is 4.78^[b]. `Cc1ccc(C)c(CC(=O)N2CCC(c3nc(CCc4ccccc4C)cs3)CC2)c1` [Example I-158]: the log p is, setting by setting: under setting [3], 4.67^[b]; under setting [4], 4.77^[c];. Taken in the same sequence, the figures for `Cc1ccc(C)c(CC(=O)N2CCC(c3nc(CCc4c(F)cccc4F)cs3)CC2)c1` [Example I-160] were 4.48^[b] and 4.55^[c];. `Cc1ccccc1C#Cc1csc(C2CCN(C(=O)Cn3nc(C(F)(F)F)cc3C)CC2)n1` [Example I-206]: the log p runs as follows: under setting [3], 4.15^[b]; under setting [4], 4.15^[c];. In the case of `Cc1cc(C(F)(F)F)nn1CC(=O)N1CCC(c2nc(C#Cc3ccccc3Br)cs2)CC1` [Example I-207], the log p reads like this: under setting [3], 4.16^[b]; under setting [4], 4.19^[c];. For the compound `Cc1cc(C(F)(F)F)nn1CC(=O)N1CCC(c2nc(C#Cc3c(F)cccc3F)cs2)CC1` [Example I-208], the log p reads like this: under setting [3], 3.83^[b]; under setting [4], 3.86^[c];.

For `Cc1cccnc1C#Cc1csc(C2CCN(C(=O)Cn3nc(C(F)(F)F)cc3C)CC2)n1` [Example I-210], the log p by setting is: under setting [3], 2.72^[b]; under setting [4], 2.95^[c];. Turning to `Cc1ccccc1C#Cc1csc(C2CCN(C(=O)Cn3nc(C(F)(F)F)cc3C(F)(F)F)CC2)n1` [Example I-212], the log p under setting [3] was 4.73^[b]. Take `O=C(Cn1nc(C(F)(F)F)cc1C(F)(F)F)N1CCC(c2nc(C#Cc3ccccc3Br)cs2)CC1` [Example I-213]: the log p under setting [3] was 4.74^[b]. Consider `O=C(Cn1nc(C(F)(F)F)cc1C(F)(F)F)N1CCC(c2nc(C#Cc3c(F)cccc3F)cs2)CC1` [Example I-214], for which, under setting [3], the log p was 4.4^[b]. `Cc1cccnc1C#Cc1csc(C2CCN(C(=O)Cn3nc(C(F)(F)F)cc3C(F)(F)F)CC2)n1` [Example I-216]: the log p under setting [3] is 3.37^[b].

As to `Cc1ccccc1C#Cc1csc(C2CCN(C(=O)Cn3nc(C(F)F)cc3C(F)F)CC2)n1` [Example I-218], the log p reads like this: under setting [3], 3.99^[b]; under setting [4], 4.02^[c];.

For the compound `O=C(Cn1nc(C(F)F)cc1C(F)F)N1CCC(c2nc(C#Cc3ccccc3Br)cs2)CC1` [Example I-219], the log p reads like this: under setting [3], 4.04^[b]; under setting [4], 4.04^[c];. Taken in the same sequence, the figures for `O=C(Cn1nc(C(F)F)cc1C(F)F)N1CCC(c2nc(C#Cc3c(F)cccc3F)cs2)CC1` [Example I-220] were 3.7^[b] and 3.73^[c];. Take `Cc1cccnc1C#Cc1csc(C2CCN(C(=O)Cn3nc(C(F)F)cc3C(F)F)CC2)n1` [Example I-222]: the log p is, setting by setting: under setting [3], 2.68^[b]; under setting [4], 2.86^[c];.

Regarding `Cc1noc(C)c1C#Cc1csc(C2CCN(C(=O)Cn3nc(C(F)F)cc3C(F)F)CC2)n1` [Example I-223], the log p under setting [3] was 3.09^[b].

In the case of `Cc1ccccc1C#Cc1csc(C2CCN(C(=O)Cc3cc(Cl)ccc3Cl)CC2)n1` [Example I-224], the log p under setting [3] is 4.91^[b]. For the compound `O=C(Cc1cc(Cl)ccc1Cl)N1CCC(c2nc(C#Cc3ccccc3Br)cs2)CC1` [Example I-225], the log p under setting [3] is 4.91^[b]. On the same count and under the same terms, then `O=C(Cc1cc(Cl)ccc1Cl)N1CCC(c2nc(C#Cc3c(F)cccc3F)cs2)CC1` [Example I-226], with 4.52^[b]. `Cc1cccnc1C#Cc1csc(C2CCN(C(=O)Cc3cc(Cl)ccc3Cl)CC2)n1` [Example I-228]: the log p is 3.35^[b] under setting [3] and 3.55^[c] under setting [4]. With `Cc1noc(C)c1C#Cc1csc(C2CCN(C(=O)Cc3cc(Cl)ccc3Cl)CC2)n1` [Example I-229], the log p under setting [3] was 3.86^[b].

In the case of `Cc1ccc(C)c(CC(=O)N2CCC(c3nc(C#Cc4ccccc4C)cs3)CC2)c1` [Example I-230], the log p was 4.75^[b] under setting [3] and 4.78^[c]; under setting [4]. As to `Cc1ccc(C)c(CC(=O)N2CCC(c3nc(C#Cc4ccccc4Br)cs3)CC2)c1` [Example I-231], the log p under setting [3] is 4.77^[b] and the log p under setting [4] is 4.8^[c];. Turning to `Cc1ccc(C)c(CC(=O)N2CCC(c3nc(C#Cc4c(F)cccc4F)cs3)CC2)c1` [Example I-232], the log p runs as follows: under setting [3], 4.36^[b]; under setting [4], 4.39^[c];. Regarding `Cc1ccc(C)c(CC(=O)N2CCC(c3nc(C#Cc4c(C)noc4C)cs3)CC2)c1` [Example I-235], the log p is 3.67^[b] under setting [3] and 3.71^[c]; under setting [4]. `Cc1cccnc1/C=C\c1csc(C2CCN(C(=O)Cn3nc(C(F)(F)F)cc3C(F)(F)F)CC2)n1` [Example I-236]: the log p under setting [3] was 2.46^[b]. With `Cc1ccc(C)c(CC(=O)N2CCC(c3nc(/C=C\c4ccccc4C)cs3)CC2)c1` [Example I-237], the log p under setting [3] is 4.86^[b] and the log p under setting [4] is 4.95^[c];. Taken in the same sequence, the figures for `C#Cc1csc(C2CCN(C(=O)Cc3cc(C)ccc3C)CC2)n1` [Example I-238] were 2.93^[b]; and 2.95^[c].

Consider `C#Cc1csc(C2CCN(C(=O)Cn3nc(C(F)F)cc3C(F)F)CC2)n1` [Example I-239], for which the log p under setting [3] is 2.45^[b]. As to `Brc1sc(C2CCNCC2)nc1CCc1ccccc1` [II-3, 4-[5-Bromo-4-(2-phenylethyl)-1,3-thiazol-2-yl]piperidine], the log p (pH 2.3, pH2.3, read-out: log P) was found to be 1.72.
